According to ChEMBL document CHEMBL3232986, “Identification of a novel series of potent HCV NS5B Site I inhibitors” (Bioorg Med Chem Lett, 2014):

What was measured:
[1] = Cytotoxicity against human HuH7 cells after 4 hrs by CellTitre-Blue assay; assay type: cell-based, Huh-7
[2] = (§1) Drug uptake in rat liver 10 mg/kg, po after 6 hrs; assay type: ADME, organism-based; parameters: dose 10 mg/kg, route oral; conditions: liver, read-out: Drug uptake
[3] = (§2) Plasma concentration in rat at 10 mg/kg, po after 6 hrs; assay type: ADME, organism-based; parameters: dose 10 mg/kg, route oral; conditions: plasma
Hepatitis C virus = experiment: Antiviral activity against HCV genotype 1a H77c infected in human HuH7 cells after 3 days by luciferase reporter gene assay; assay type: functional, cell-based, Hepacivirus hominis; conditions: Huh-7, 72 h
[4] = (§3) Plasma concentration in rat at 5 mg/kg, iv after 6 hrs; assay type: ADME, organism-based; parameters: dose 5 mg/kg, route intravenous; conditions: plasma
[5] = Clearance in rat after 6 hrs; assay type: ADME, organism-based; conditions: in vivo
[6] = Inhibition of HCV genotype 1b wild type NS5B polymerase using biotinylated oligo dT12 primer as substrate after 4 hrs in presence of [3H]UTP; parameters: species or system Hepatitis C virus subtype 1b
[7] = (§4) Drug uptake in rat liver at 5 mg/kg, iv after 6 hrs; assay type: ADME, organism-based; parameters: dose 5 mg/kg, route intravenous; conditions: liver, read-out: Drug uptake
[8] = Cytotoxicity against human HuH7 cells after 3 days by Alamar blue assay; assay type: cell-based, Huh-7
[9] = Ratio of EC50 for HCV genotype 1a H77c replicon cells to IC50 for HCV genotype 1b wild type NS5B polymerase
Liver [10] = experiment: as §4; assay type: ADME, organism-based; parameters: dose 5 mg/kg, route intravenous; conditions: in vivo, 6 h, BLD = below limit of detection
Liver [11] = experiment: as §1; assay type: ADME, organism-based; parameters: dose 10 mg/kg, route oral; conditions: in vivo, 6 h, BLD = below limit of detection
Plasma [12] = experiment: as §2; assay type: ADME, organism-based; parameters: dose 10 mg/kg, route oral; conditions: in vivo, 6 h, BLD = below limit of detection
Plasma [13] = experiment: as §3; assay type: ADME, organism-based; parameters: dose 5 mg/kg, route intravenous; conditions: in vivo, 6 h, BLD = below limit of detection
[14] = Permeability of the compound at pH 7.4 by PAMPA; assay type: physicochemical; conditions: read-out: permeability
[15] = Permeability of the compound at pH 5.5 by PAMPA; assay type: physicochemical; conditions: read-out: permeability

Structure (SMILES)	EC50 (Hepatitis C virus)	IC50 [6]	CC50 at 4 h [1]	other results
COc1ccc2c(c1)[C@@H]1C[C@]1(C(=O)N1CC34CNCC3(CN(C)C4)C1)Cn1c-2c(C2CCCCC2)c2ccc(C(=O)NS(=O)(=O)C(C)C)cc21 (some centres undefined)	0.041 µM	0.005 µM	–	–
COc1ccc2c(c1)[C@@H]1C[C@]1(C(=O)N1CC34CNCC3(COC4)C1)Cn1c-2c(C2CCCCC2)c2ccc(C(=O)NS(=O)(=O)C(C)C)cc21 (some centres undefined)	0.023 µM	0.006 µM	–	–
COc1ccc2c(c1)[C@@H]1C[C@]1(C(=O)N1CC34COCC3(CN(C(C)=O)C4)C1)Cn1c-2c(C2CCCCC2)c2ccc(C(=O)NS(=O)(=O)C(C)C)cc21 (some centres undefined)	0.042 µM	0.003 µM	> 100 µM	Ratio [9]: 14
COC(=O)N1CC23COCC2(C1)CN(C(=O)[C@]12C[C@H]1c1cc(OC)ccc1-c1c(C4CCCCC4)c4ccc(C(=O)NS(=O)(=O)C(C)C)cc4n1C2)C3 (some centres undefined)	0.046 µM	0.023 µM	5 µM	–
COC(=O)N1CC23COCC2(C1)CN(C(=O)[C@]12C[C@H]1c1cc(OC)ccc1-c1c(C4CCCCC4)c4ccc(C(=O)NS(=O)(=O)N(C)C)cc4n1C2)C3 (some centres undefined)	0.462 µM	–	7 µM	–
CNC(=O)N1CC23COCC2(C1)CN(C(=O)[C@]12C[C@H]1c1cc(OC)ccc1-c1c(C4CCCCC4)c4ccc(C(=O)NS(=O)(=O)C(C)C)cc4n1C2)C3 (some centres undefined)	0.2 µM	0.003 µM	> 100 µM	Papp [14]: 1.8 ×10⁻⁶ cm/s; Ratio [9]: 66
CNC(=O)N1CC23COCC2(C1)CN(C(=O)[C@]12C[C@H]1c1cc(OC)ccc1-c1c(C4CCCCC4)c4ccc(C(=O)NS(=O)(=O)N(C)C)cc4n1C2)C3 (some centres undefined)	0.086 µM	0.002 µM	96 µM	Papp [14]: 3.7 ×10⁻⁶ cm/s; Ratio [9]: 43
COc1ccc2c(c1)[C@@H]1C[C@]1(C(=O)N1CC34COCC3(C1)CN(S(=O)(=O)C(C)C)C4)Cn1c-2c(C2CCCCC2)c2ccc(C(=O)NS(=O)(=O)C(C)C)cc21 (some centres undefined)	0.016 µM	0.002 µM	17 µM	Ratio [9]: 8
COc1ccc2c(c1)[C@@H]1C[C@]1(C(=O)N1CC34COCC3(CN(CC(F)(F)F)C4)C1)Cn1c-2c(C2CCCCC2)c2ccc(C(=O)NS(=O)(=O)C(C)C)cc21 (some centres undefined)	0.016 µM	0.004 µM	8 µM	–
COc1ccc2c(c1)[C@@H]1C[C@]1(C(=O)N1CC34COCC3(CN(CC(F)(F)F)C4)C1)Cn1c-2c(C2CCCCC2)c2ccc(C(=O)NS(=O)(=O)N(C)C)cc21 (some centres undefined)	0.019 µM	0.002 µM	7 µM	–
COc1ccc2c(c1)[C@@H]1C[C@]1(C(=O)N1CC34CCC3(CN(C(C)=O)C4)C1)Cn1c-2c(C2CCCCC2)c2ccc(C(=O)NS(=O)(=O)C(C)C)cc21 (some centres undefined)	0.031 µM	0.002 µM	37 µM	–
COC(=O)N1CC23CCC2(C1)CN(C(=O)[C@]12C[C@H]1c1cc(OC)ccc1-c1c(C4CCCCC4)c4ccc(C(=O)NS(=O)(=O)C(C)C)cc4n1C2)C3 (some centres undefined)	0.064 µM	0.025 µM	3 µM	–
CNC(=O)N1CC23CCC2(C1)CN(C(=O)[C@]12C[C@H]1c1cc(OC)ccc1-c1c(C4CCCCC4)c4ccc(C(=O)NS(=O)(=O)C(C)C)cc4n1C2)C3 (some centres undefined)	0.02 µM	0.002 µM	72 µM	–
COc1ccc2c(c1)[C@@H]1C[C@]1(C(=O)N1CC34CCC3(CN(C(=O)N3CCCC3)C4)C1)Cn1c-2c(C2CCCCC2)c2ccc(C(=O)NS(=O)(=O)C(C)C)cc21 (some centres undefined)	0.027 µM	0.004 µM	14 µM	–
COc1ccc2c(c1)[C@@H]1C[C@]1(C(=O)N1CC34CCC3(CN(C(=O)N3CCCC3)C4)C1)Cn1c-2c(C2CCCCC2)c2ccc(C(=O)NS(=O)(=O)N(C)C)cc21 (some centres undefined)	0.018 µM	0.002 µM	10 µM	–
COc1ccc2c(c1)[C@@H]1C[C@]1(C(=O)N1CC34CCC3(CN(C(=O)N3CCOCC3)C4)C1)Cn1c-2c(C2CCCCC2)c2ccc(C(=O)NS(=O)(=O)C(C)C)cc21 (some centres undefined)	0.028 µM	0.005 µM	27 µM	–
COc1ccc2c(c1)[C@@H]1C[C@]1(C(=O)N1CC34CCC3(CN(C(=O)N(C(C)C)C(C)C)C4)C1)Cn1c-2c(C2CCCCC2)c2ccc(C(=O)NS(=O)(=O)C(C)C)cc21 (some centres undefined)	0.037 µM	0.004 µM	10 µM	–
COc1ccc2c(c1)[C@@H]1C[C@]1(C(=O)N1CC34CCC3(CN(C(=O)N(C(C)C)C(C)C)C4)C1)Cn1c-2c(C2CCCCC2)c2ccc(C(=O)NS(=O)(=O)N(C)C)cc21 (some centres undefined)	0.023 µM	0.007 µM	7 µM	–
COc1ccc2c(c1)[C@@H]1C[C@]1(C(=O)N1CC34CCC3(CN(CC(F)(F)F)C4)C1)Cn1c-2c(C2CCCCC2)c2ccc(C(=O)NS(=O)(=O)C(C)C)cc21 (some centres undefined)	0.077 µM	0.007 µM	35 µM	–
COc1ccc2c(c1)[C@@H]1C[C@]1(C(=O)N1CC34CCC3(CN(CC(F)(F)F)C4)C1)Cn1c-2c(C2CCCCC2)c2ccc(C(=O)NS(=O)(=O)N(C)C)cc21 (some centres undefined)	0.055 µM	0.004 µM	26 µM	–

Compounds with a lower EC50 (Hepatitis C virus), results first:

EC50 (Hepatitis C virus)	IC50 [6]	Structure (SMILES)	CC50 at 4 h [1]	other results
0.004 µM	0.004 µM	CCN1CC23COCC2(C1)CN(C(=O)[C@]12C[C@H]1c1cc(OC)ccc1-c1c(C4CCCCC4)c4ccc(C(=O)NS(=O)(=O)C(C)C)cc4n1C2)C3 (some centres undefined)	11 µM	concentration at 6 h [2]: 66 nM; concentration at 6 h [3]: 6 nM; concentration at 6 h [4]: 8 nM; clearance [5]: 49 mL/min/kg
0.001 µM	0.005 µM	COc1ccc2c(c1)[C@@H]1C[C@]1(C(=O)N1CC34CN(C)CC3(CN(C)C4)C1)Cn1c-2c(C2CCCCC2)c2ccc(C(=O)NS(=O)(=O)C(C)C)cc21 (some centres undefined)	43 µM	concentration at 6 h [7]: 66 nM; concentration at 6 h [2]: 68 nM; concentration at 6 h [3]: 4 nM; concentration at 6 h [4]: 14 nM; clearance [5]: 25 mL/min/kg
0.001 µM	0.004 µM	COc1ccc2c(c1)[C@@H]1C[C@]1(C(=O)N1CC34COCC3(CN(C)C4)C1)Cn1c-2c(C2CCCCC2)c2ccc(C(=O)NS(=O)(=O)C(C)C)cc21 (some centres undefined)	–	CC50 at 72 h [8]: 14 µM; concentration at 6 h [7]: 52 nM; concentration at 6 h [2]: 38 nM; concentration at 6 h [3]: 2 nM; concentration at 6 h [4]: 6 nM; clearance [5]: 27 mL/min/kg
0.008 µM	0.002 µM	COc1ccc2c(c1)[C@@H]1C[C@]1(C(=O)N1CC34COCC3(CN(C(C)=O)C4)C1)Cn1c-2c(C2CCCCC2)c2ccc(C(=O)NS(=O)(=O)N(C)C)cc21 (some centres undefined)	–	CC50 at 72 h [8]: 24 µM; Drug uptake (Liver [10]): BLD; Drug uptake (Liver [11]): BLD; Cp (Plasma [12]): BLD; Cp (Plasma [13]): BLD; clearance [5]: 19 mL/min/kg; Ratio [9]: 4
0.006 µM	0.002 µM	COc1ccc2c(c1)[C@@H]1C[C@]1(C(=O)N1CC34COCC3(C1)CN(S(=O)(=O)C(C)C)C4)Cn1c-2c(C2CCCCC2)c2ccc(C(=O)NS(=O)(=O)N(C)C)cc21 (some centres undefined)	12 µM	–
0.005 µM	–	CCOCCN1CC23COCC2(C1)CN(C(=O)[C@]12C[C@H]1c1cc(OC)ccc1-c1c(C4CCCCC4)c4ccc(C(=O)NS(=O)(=O)C(C)C)cc4n1C2)C3 (some centres undefined)	19 µM	concentration at 6 h [7]: 77 nM; concentration at 6 h [2]: 116 nM; concentration at 6 h [3]: 8 nM; concentration at 6 h [4]: 32 nM; clearance [5]: 81 mL/min/kg
0.003 µM	–	CCOCCN1CC23COCC2(C1)CN(C(=O)[C@]12C[C@H]1c1cc(OC)ccc1-c1c(C4CCCCC4)c4ccc(C(=O)NS(=O)(=O)N(C)C)cc4n1C2)C3 (some centres undefined)	16 µM	–
0.004 µM	0.004 µM	COc1ccc2c(c1)[C@@H]1C[C@]1(C(=O)N1CC34CCC3(CN(C)C4)C1)Cn1c-2c(C2CCCCC2)c2ccc(C(=O)NS(=O)(=O)C(C)C)cc21 (some centres undefined)	21 µM	concentration at 6 h [7]: 138 nM; concentration at 6 h [2]: 146 nM; concentration at 6 h [3]: 6 nM; concentration at 6 h [4]: 26 nM; clearance [5]: 24 mL/min/kg
0.012 µM	0.005 µM	COc1ccc2c(c1)[C@@H]1C[C@]1(C(=O)N1CC34CCC3(C1)CN(C1CC1)C4)Cn1c-2c(C2CCCCC2)c2ccc(C(=O)NS(=O)(=O)C(C)C)cc21 (some centres undefined)	18 µM	–
0.008 µM	–	COc1ccc2c(c1)[C@@H]1C[C@]1(C(=O)N1CC34CCC3(C1)CN(C1CC1)C4)Cn1c-2c(C2CCCCC2)c2ccc(C(=O)NS(=O)(=O)N(C)C)cc21 (some centres undefined)	5 µM	–
0.015 µM	0.002 µM	COc1ccc2c(c1)[C@@H]1C[C@]1(C(=O)N1CC34CCC3(CN(C(=O)N3CCOCC3)C4)C1)Cn1c-2c(C2CCCCC2)c2ccc(C(=O)NS(=O)(=O)N(C)C)cc21 (some centres undefined)	21 µM	Papp [15]: 11.3 ×10⁻⁶ cm/s; Papp [14]: 25.9 ×10⁻⁶ cm/s
0.007 µM	0.004 µM	COc1ccc2c(c1)[C@@H]1C[C@]1(C(=O)N1CC34CCC3(C1)CN(S(=O)(=O)C(C)C)C4)Cn1c-2c(C2CCCCC2)c2ccc(C(=O)NS(=O)(=O)C(C)C)cc21 (some centres undefined)	10 µM	–
0.002 µM	0.003 µM	COc1ccc2c(c1)[C@@H]1C[C@]1(C(=O)N1CC34CCCC3(CN(C)C4)C1)Cn1c-2c(C2CCCCC2)c2ccc(C(=O)NS(=O)(=O)C(C)C)cc21 (some centres undefined)	11 µM	concentration at 6 h [7]: 428 nM; concentration at 6 h [2]: 504 nM; concentration at 6 h [3]: 24 nM; concentration at 6 h [4]: 22 nM; clearance [5]: 31 mL/min/kg
0.002 µM	0.004 µM	COc1ccc2c(c1)[C@@H]1C[C@]1(C(=O)N1[C@@H]3CC[C@H]1CN(C)C3)Cn1c-2c(C2CCCCC2)c2ccc(C(=O)NS(=O)(=O)N(C)C)cc21 [BECLABUVIR]	16 µM	–
